Measured values: patent publication US10064858B2, “Methods and compositions for treating bacterial infections with iron chelators” (THE UNITED STATES OF AMERICA, AS REPRESENTED BY THE …, priority 2011, dated 2018)
In brackets after ≈: the same amount, converted by molar mass. Read-outs that look alike come from different tables or passages of the source.

What was measured:
Format in all cases: cell-based
[1] = tested on: E. coli; experiment: MIC, CLSI microdilution (Tables 1 and 6)
Procedure: (§1) The minimal inhibitory concentration (MIC) of non-toxic iron chelators was determined against standard strains of MDR bacteria and clinical isolates according to the guidelines of the Clinical and Laboratory Standards Institute (CLSI).
(§2) Individual MICs were determined following the microdilution method recommended by CLSI in cationic-adjusted Mueller-Hinton Broth (CAMHB), or M9 media. […] Tests were performed in triplicate. MIC of iron chelators were determined for noscomial ESKAPE pathogens.
(§3) MIC were determined in CAMHB media as described above in Example 8.

[2] = tested on: S. aureus; experiment: MIC, CLSI microdilution (Tables 1 and 6); details: Staphylococcus aureus
Procedure: as §1, §2, §3

[3] = tested on: Acinetobacter baumannii; experiment: MIC, CLSI microdilution (Tables 1 and 6)
Procedure: as §1, §2, §3

[4] = tested on: K. pneumonia; experiment: MIC, CLSI microdilution (Tables 1 and 6); details: Klebsiella pneumoniae
Procedure: as §1, §2, §3

[5] = tested on: P. aeruginosa; experiment: MIC, CLSI microdilution (Tables 1 and 6); details: Pseudomonas aeruginosa
Procedure: as §1, §2, §3

[6] = tested on: E. coli strain EC35218; experiment: Growth (OD600) with chelator, Rifampin or both; details: CAMHB
Procedure: E. coli strain EC35218 was grown in CAMHB and challenged with 1.5×MIC compound 4 (Var) or 1.5×MIC Triapine (Tri) with or without 0.75×MIC Rifampin (Rif). Growth was estimated by absorbance at 600 nm (y-axis) at 0 or 24 hours.

[7] = tested on: A. baumannii strain AB19606; experiment: Growth (OD600) with chelator, Rifampin or both; details: CAMHB
Procedure: A. baumannii strain AB19606 was grown in CAMHB and challenged with 1.5×MIC compound 4 (Var) or 1.5×MIC Triapine (Tri) with or without 0.75×MIC Rifampin (Rif). Growth was estimated by absorbance at 600 nm (y-axis) at 0 or 24 hours.

[8] = tested on: E. coli; experiment: MIC in RPMI1640 media (Table 2)
Procedure: (§4) […] […] Tests were performed in triplicate. MIC of iron chelators were determined for noscomial ESKAPE pathogens.
(§5) This media is closer to the iron levels in the human body. MICs are in ug/mL.

[9] = tested on: Acinetobacter baumannii; experiment: MIC in RPMI1640 media (Table 2)
Procedure: as §4, §5

[10] = tested on: K. pneumonia; experiment: MIC in RPMI1640 media (Table 2); details: Klebsiella pneumoniae
Procedure: as §4, §5

[11] = tested on: P. aeruginosa; experiment: MIC in RPMI1640 media (Table 2); details: Pseudomonas aeruginosa
Procedure: as §4, §5

[12] = tested on: Acinetobacter baumannii strain 5711 (AB5711); experiment: Growth (OD600) of AB5711 in low iron media with chelators, with or without FeCl3; details: AB5711; low iron media; 100 μM or 200 μM chelator added after 4 hr; 24 hr
Procedure: Acinetobacter baumannii strain 5711 (AB5711) was grown overnight in LB media and sub-cultured into low iron media. The tested iron chelators were deferoxamine (DFO), deferiprone (DFP), 2,2-dipyridyl, and VK28. The iron chelators were added after 4 hr of growth.
Bacterial growth was estimated by absorption at OD600 every 4 hr for 24 hr. Optical density (OD) at 600 nm (OD600) as measured by a spectrophotometer is a widely used technique known by one skilled in the art to estimate the total number of bacterial cells present in a broth culture (CFU/ml). The exact amount of OD produced by a culture will depend on the concentration of cells present, the species and strain of microbe present, the growth conditions used, and the wavelength of the light being transmitted. Thus, the relationship between OD and cell concentrations will depend on the specific strain and growth conditions studied. For example, the OD600 of 1 for E. coli is about 1×10^9 CFU/ml.
This example provides further evidence that the removal of iron is responsible for bacterial growth inhibition. A. baumannii isolate 5711 was grown in low iron M9 media supplemented with 0 μM, 10 μM, or 100 μM FeCl3 with and without the addition of 200 μM VK28 following 4 hr of growth. Growth was estimated by absorbance at 600 nm every 4 hr for 24 hr.
This example provides further evidence that the removal of iron is responsible for bacterial growth inhibition. A. baumannii isolate 5711 was grown in low iron M9 media supplemented with 0 μM, 10 μM, 100 μM, or 1000 μM FeCl3 with and without the addition of 50 μg/ml of VK28 following 4 hr of growth. Growth was estimated by absorbance at 600 nm after 20 hours.

[13] = tested on: E. coli EC35218; experiment: Time-kill assay in CAMHB; details: ¾MIC Rifampicin alone; CAMHB
Procedure: Reductions in colony forming units (CFU)/mL were determined over time (time-kill assay) after exposure to VK28 and deferiprone (DFP), the two iron chelators that performed best in MIC assays when compared to controls. To better represent the iron content found in the human body, MIC and time-kill assays were also determined in minimal media and tissue culture media. Time-Kill assays were performed as previously described in G. P. Neupane et al., “In vitro time-kill activities of ciprofloxacin alone and in combination with the iron chelator deferasirox against Vibrio vulnificus,” European Journal of Clinical Microbiology and Infectious Diseases, 407-410 (2010); and R. L. White, et al., “Comparison of Three Different In Vitro Methods of Detecting synergy: Time-Kill, Checkerboard, and E test,” Journal of Antimicrobial Agents and Chemotherapy, 1914-1918 (1996). Initial inocula, for example 1×10^6 CFU/mL or 1×10^7 CFU/mL were challenged with iron chelator with and/or without an antibiotic. Cells were allowed to grow in CAMHB at 37° C. for 24 hours. Time-kill results were analyzed by determining the change in log 10 numbers of CFU/ml at 0, 6, and 24 h, compared to counts at 0 h. Antimicrobials were considered bactericidal at the lowest concentration that reduced the size of the original inoculum by >3 log 10 CFU/ml (99.9%) over each of the time periods and were considered bacteriostatic if the inoculum's size was reduced by 0 to <3 log 10 CFU/ml.
In this example, time-kill assays were performed as described in Example 9 against different multi-drug resistant bacteria, namely E. coli and MRSA.
In this example, time-kill assays were performed as described in Example 9 using ApoL1 as the iron chelator against two different E. coli strains. […] Time-kill results were analyzed by determining the change in log 10 numbers of CFU/mL at 6 and 24 hours.
In this example, time-kill assays were performed as described in Example 9 using Apo6619 as the iron chelator in combination with Rifampin against E. coli 35718. […] Time-kill results were analyzed by determining the change in log 10 numbers of CFU/mL at 0, 5 and 24 hours.

[14] = tested on: AB5075, a stain of A. baumannii (Ab); experiment: Development of rifampin resistance over 7 days (OD600); details: rifampin alone
Procedure: Development of antibiotic-resistant strains is an ongoing problem in the treatment of bacterial infections. In some embodiments, the present technology provides methods and compositions for reducing, inhibiting or preventing formation of antibiotic-resistant bacterial strains. In some embodiments, the iron chelator of the present technology is administered to a patient as a prophylactic before antibiotic treatment or during antibiotic treatment. In some embodiments, the iron chelator is added concurrently with an antibiotic.
Cultures of AB5075, a stain of A. baumannii (Ab), was cultured in the presence of Rifampin alone, the iron chelator ApoL1 alone or Rifampin combination with ApoL1 for 7 days.

[15] = 1.5×MIC chelator in combination with 0.75×MIC Rifampin
[16] = alone: 1.5×MIC chelator or 0.75×MIC Rifampin
[17] = Escherichia coli, 35718, read-out: MIC of Iron Chelators
[18] = Escherichia coli, ATCC43888, ATCC 43888 (0157:H7), read-out: MIC of Iron Chelators
[19] = ATCC17978, ATCC 17978, read-out: MIC of Iron Chelators
[20] = ATCC19606, ATCC 19606, read-out: MIC of Iron Chelators
[21] = ATCC700603, ATCC 700603, read-out: MIC of Iron Chelators
[22] = BAA2146, BAA-2146, read-out: MIC of Iron Chelators
[23] = ATCC27853, ATCC 27853, read-out: MIC of Iron Chelators
[24] = PAO1, read-out: MIC of Iron Chelators
[25] = Escherichia coli, ATCC35218, ATCC 35218, Table 1, read-out: MIC of Iron Chelators
[26] = Escherichia coli, ATCC43888, ATCC 43888 (0157:H7), Table 1, read-out: MIC of Iron Chelators
[27] = ATCC25923, ATCC 25923, Table 1, read-out: MIC of Iron Chelators
[28] = ATCC 43300 (MRSA), Table 1, read-out: MIC of Iron Chelators
[29] = ATCC17978, ATCC 17978, Table 1, read-out: MIC of Iron Chelators
[30] = ATCC19606, ATCC 19606, Table 1, read-out: MIC of Iron Chelators
[31] = ATCC700603, ATCC 700603, Table 1, read-out: MIC of Iron Chelators
[32] = BAA2146, BAA-2146, Table 1, read-out: MIC of Iron Chelators
[33] = ATCC27853, ATCC 27853, Table 1, read-out: MIC of Iron Chelators
[34] = PAO1, Table 1, read-out: MIC of Iron Chelators

| SMILES | reduction of bacteria (absorbance at 600 nm, 24 hours) [6, 16] | reduction of bacteria (absorbance at 600 nm, 24 hours) [7, 16] | MIC [8, 17] | MIC [8, 18] | MIC [9, 19] | MIC [9, 20] | MIC [10, 21] | MIC [10, 22] | MIC [11, 23] | MIC [11, 24] | MIC [1, 25] | MIC [1, 26] | MIC [2, 27] | MIC [2, 28] | MIC [3, 29] | MIC [3, 30] | MIC [4, 31] | MIC [4, 32] | MIC [5, 33] | MIC [5, 34] | also measured |
| --- | --- | --- | --- | --- | --- | --- | --- | --- | --- | --- | --- | --- | --- | --- | --- | --- | --- | --- | --- | --- | --- |
| NC(=S)N/N=C/c1ncccc1N [Triapine, 3-aminopyridine-2-carboxaldehyde thiosemicarbazone] | did not result in a reduction of bacteria | no reduction of bacteria |  |  |  |  |  |  |  |  |  |  |  |  |  |  |  |  |  |  | MIC ([1]; EC43888, CAMHB): 125 µg/mL (≈ 640 µM); MIC ([1]; Escherichia coli, EC35218, CAMHB, read-out: MIC): 125 µg/mL (≈ 640 µM); MIC ([2]; SA43300, CAMHB, read-out: MIC): 125 µg/mL (≈ 640 µM); MIC ([3]; AB19606, CAMHB, read-out: MIC): 32 µg/mL (≈ 164 µM); MIC ([4]; KP700603, CAMHB, read-out: MIC): 250 µg/mL (≈ 1280 µM); MIC ([5]; PA27853, CAMHB, read-out: MIC): 250 µg/mL (≈ 1280 µM); reduction of bacteria (absorbance at 600 nm, 24 hours) [6, 15]: significant reduction in bacteria; reduction of bacteria (absorbance at 600 nm, 24 hours) [7, 15]: significant reduction in bacteria |
| CC(=O)N(O)CCCCCNC(=O)CCC(=O)N(O)CCCCCNC(=O)CCC(=O)N(O)CCCCCN [DFO, deferoxamine] |  |  | > 500 µg/mL | > 500 µg/mL | > 500 µg/mL | > 500 µg/mL | > 500 µg/mL | > 500 µg/mL | > 500 µg/mL | > 500 µg/mL | > 500 µg/mL | > 500 µg/mL | > 500 µg/mL | > 500 µg/mL | > 500 µg/mL | > 500 µg/mL | > 500 µg/mL | > 500 µg/mL | > 500 µg/mL | > 500 µg/mL | bacterial growth (OD600 growth curves) [12]: little effect |
| CO[C@H]1/C=C/O[C@@]2(C)Oc3c(C)c(O)c4c(O)c(c(/C=N/N5CCN(C)CC5)c(O)c4c3C2=O)NC(=O)/C(C)=C\C=C\[C@H](C)[C@H](O)[C@@H](C)[C@@H](O)[C@@H](C)[C@H](OC(C)=O)[C@@H]1C [Rifampin] | did not result in a reduction of bacteria | no reduction of bacteria |  |  |  |  |  |  |  |  |  |  |  |  |  |  |  |  |  |  | CFU/mL at 24 hours [13]: about 1×10^7 CFU/mL; time until antibiotic-resistant strains develop [14]: less than one day |
| c1ccc(-c2ccccn2)nc1 [DIP, 2,2-dipyridyl] |  |  | 64 µg/mL | 64 µg/mL | 32 µg/mL | 32 µg/mL | 250 µg/mL | 125 µg/mL | 250 µg/mL | 250 µg/mL | 64 µg/mL | 64 µg/mL | 500 µg/mL | 250 µg/mL | 64 µg/mL | 64 µg/mL | 500 µg/mL | 250 µg/mL | 250 µg/mL | 250 µg/mL | bacterial growth (OD600 growth curves) [12]: reduced bacterial growth to a significant extent |
